Experimental data from PubChem BioAssay (NCI).
Where “and” joins values, the source holds several entries; their conditions need not be identical. Identical values can stand only once.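 Interpolation was linear, between the two tested concentrations surrounding the appropriate level; five concentrations were tested over 48 hours in 96-well plates. At the GI50, growth is halved. TGI: total growth inhibition.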

Columns and labels:
Assay in all cases: NCI-60 cell line screen, 48 h
NCI-H460 lung = test system: NCI-H460 lung
NCI/ADR-RES ovarian = test system: NCI/ADR-RES ovarian
SK-MEL-2 melanoma = test system: SK-MEL-2 melanoma
UACC-257 melanoma = test system: UACC-257 melanoma
MDA-MB-435 = test system: MDA-MB-435
SW-620 colon = test system: SW-620 colon
SNB-19 CNS = test system: SNB-19 CNS
HOP-92 NSCLC = test system: HOP-92 NSCLC
NCI-H226 lung = test system: NCI-H226 lung
U251 CNS = test system: U251 CNS

Row | SMILES | GI50 (NCI-H460 lung) | TGI (NCI-H460 lung) | GI50 (NCI/ADR-RES ovarian) | TGI (NCI/ADR-RES ovarian) | GI50 (SK-MEL-2 melanoma) | TGI (SK-MEL-2 melanoma) | GI50 (UACC-257 melanoma) | TGI (UACC-257 melanoma) | GI50 (MDA-MB-435) | TGI (MDA-MB-435) | GI50 (SW-620 colon) | TGI (SW-620 colon) | GI50 (SNB-19 CNS) | TGI (SNB-19 CNS) | GI50 (HOP-92 NSCLC) | TGI (HOP-92 NSCLC) | GI50 (NCI-H226 lung) | TGI (NCI-H226 lung) | GI50 (U251 CNS) | TGI (U251 CNS)
1 | COc1cc(-c2nn(-c3cccc(NC(=O)Nc4ccc(Cl)c(C(F)(F)F)c4)c3)cc2-c2ccncc2)ccc1Cl | 1.11 µM | 4.79 µM | 1.04 µM | 7.99 µM | 1.01 µM | 2.58 µM | 1.21 µM | 6.03 µM | 0.683 µM | 1.69 µM | 1.29 µM | 29.9 µM | 1.24 µM | 9.24 µM | 0.499 µM | 1.48 µM | 1.82 µM | > 32.5 µM | 0.985 µM | 4.18 µM
2 | Cc1ccc2c(C(C[N+](=O)[O-])c3ccccc3)c(-c3ccccc3)[nH]c2c1 (stereo not drawn) | 30.1 µM | > 95 µM | 14.2 µM | > 95 µM | 46.3 µM | > 95 µM | 29.3 µM | > 95 µM | 4.1 µM | 29.2 µM | 16.6 µM | > 95 µM | 43.7 µM | > 95 µM | 11.8 µM | > 95 µM | 62.4 µM | > 95 µM | 32 µM | > 95 µM
3 | CCCc1nn(C)c2c(=O)[nH]c(-c3cc(S(=O)(=O)N4CCN(C)CC4)ccc3OCC)nc12 | > 100 µM | > 100 µM | > 100 µM | > 100 µM | > 100 µM | > 100 µM | > 100 µM | > 100 µM | > 100 µM | > 100 µM | > 100 µM | > 100 µM | > 100 µM | > 100 µM | 23.5 µM | 97.5 µM | > 100 µM | > 100 µM | > 100 µM | > 100 µM
4 | CC1(C)N=C(N)N=C(N)N1c1ccc(CNC(=O)Nc2ccc(S(=O)(=O)F)c(Cl)c2)c(Cl)c1 | 0.0456 µM | > 100 µM | > 90.8 µM | > 100 µM | 12.2 µM | > 74.9 µM | 5.11 µM | > 100 µM | 0.183 µM | > 100 µM | 0.122 µM | > 100 µM | 3.64 µM | > 100 µM | 19.9 µM | 97.5 µM | 13.7 µM | > 100 µM | 0.51 µM | > 100 µM
5 | CN1C(=O)CCC(N2C(=O)c3cccc(NCCOCCOCCNC(=O)c4cc5c(o4)C(=O)c4ccccc4C5=O)c3C2=O)C1=O (stereo not drawn) | 1.33 µM | 2.97 µM | 6.3 µM | 36.5 µM | 2.2 µM | 6.49 µM | 1.59 µM | 3.11 µM | 1.05 µM | 2.28 µM | 2.6 µM | 7.93 µM | 1.58 µM | 5.57 µM | 3.71 µM | 13.6 µM | 1.67 µM | 3.78 µM | 2.4 µM | 6.1 µM
6 | COc1ccc(Br)cc1NC(=O)Nc1cccc2c1ccn2Cc1ccnc(N)c1 | 3.85 µM and 4.2 µM | 15.1 µM and > 10 µM | 6.08 µM and > 10 µM | 60.3 µM and > 10 µM | 2.78 µM and 3.82 µM | 8.87 µM and > 10 µM | 9.81 µM and > 10 µM | 27.5 µM and > 10 µM | 5.42 µM and 5.81 µM | 23.5 µM and > 10 µM | 2.85 µM and 6.72 µM | 8.41 µM and > 10 µM | 13.6 µM and > 10 µM | > 85.7 µM | 2.18 µM and 1.96 µM | 7.9 µM and 8.55 µM | 6.45 µM and 8.39 µM | 48.4 µM and > 10 µM | 4.55 µM and 5.4 µM | 15.6 µM and > 10 µM
7 | CCC1=C(c2ccc(OC)cc2)C(C)(C)Oc2c1ccc(O)c2CN1CCCC1 | 1.7 µM | 3.59 µM | 3.05 µM | 16 µM | 1.98 µM | 3.7 µM | 1.78 µM | 3.85 µM | 1.71 µM | 4.03 µM | 1.71 µM | 3.3 µM | 6.69 µM | 56.9 µM | 1.23 µM | 3.98 µM | 2.45 µM | 14.7 µM | 1.48 µM | 3.04 µM
8 | CC1SC(c2ccccc2Cl)N(NC(=O)C(O)c2ccccc2)C1=O (stereo not drawn) | 66.9 µM | > 100 µM | 66 µM | > 100 µM | > 100 µM | > 100 µM | 49.5 µM | > 100 µM | > 100 µM | > 100 µM | > 100 µM | > 100 µM | > 100 µM | > 100 µM | > 100 µM | > 100 µM | > 100 µM | > 100 µM | 66.9 µM | > 100 µM
9 | O=c1cc(-c2ccc(F)cc2)[nH]c2ncccc12 | 34.7 µM | > 100 µM |  | > 100 µM |  | > 100 µM |  | > 100 µM | 12 µM | 33 µM |  | > 100 µM |  | > 100 µM |  | > 100 µM |  | > 100 µM | 48.2 µM | > 100 µM
10 | Cc1cc2c(F)c(Oc3ncnc(Nc4ccc(N5C[C@@H](C)N[C@@H](C)C5)cc4)c3C#N)cc(F)c2[nH]1 | 2.06 µM | 4.37 µM | 3.85 µM | 20.9 µM | 2.2 µM | 4.67 µM | 2.06 µM | 4.04 µM | 2.03 µM | 4.61 µM | 1.83 µM | 4.1 µM | 5.07 µM | 18.8 µM | 2.07 µM | 8.85 µM | 1.39 µM | 11.6 µM | 1.72 µM | 4.47 µM
11 | COc1nc(N)nc2c1ncn2C1CC(O)C(CO)O1 (stereo not drawn) |  | > 100 µM |  | > 100 µM |  | > 100 µM |  | > 100 µM |  | > 100 µM |  | > 100 µM |  | > 100 µM |  | > 100 µM |  | > 100 µM |  | > 100 µM
12 | O=C(O)c1cccc(S(=O)(=O)NCCO)c1 |  | > 100 µM |  | > 100 µM |  | > 100 µM |  | > 100 µM |  | > 100 µM |  | > 100 µM |  | > 100 µM |  | > 100 µM |  | > 100 µM |  | > 100 µM
13 | Cc1c(CN2CCN(C(=O)[C@H](C)O)CC2)sc2c(N3CCOCC3)nc(-c3cnc(N)nc3)nc12 | 0.12 µM and 0.108 µM | > 100 µM | 0.663 µM and 0.408 µM | > 30.2 µM | 0.513 µM and 0.198 µM | 4.72 µM and 1.8 µM | 0.31 µM and 0.132 µM | 3.76 µM and 0.751 µM | 0.285 µM and 0.186 µM | 3.16 µM and 1.38 µM | 0.473 µM and 0.285 µM | > 100 µM | 0.898 µM and 0.313 µM | > 10 µM and 6.16 µM | 0.143 µM and 0.0181 µM | 0.8 µM and 0.108 µM | 0.345 µM and 0.159 µM | 6.15 µM | 1.05 µM and 0.328 µM | > 35.8 µM
